Experimental data: patent US9261498B2, “Biomarker for sensitivity to mTOR inhibitor therapy in kidney cancer” (The Regents of the University of California, priority 2005, dated 2016)
“Also recorded” adds a separate entry of the source.

Tested on: SN12C-VHLshRNA-HIF-1α mutant and SN12C-VHLshRNA-HIF-2α mutant cells
Assay: In vitro growth of VHL knockdown cells expressing prolyl hydroxylation defective HIF mutants
Format: cell-based, human
Details: 1 or 10 nM CCI-779, 5 days
Description: FIGS. 4A-4C. Rescue of CCI-779 growth suppression by HIF-1-α and HIF-2-α prolyl hydcroxylase mutants. SN12C-CSCG-VHLshRNA cells stably infected with the prolyl hydroxylation defective cDNA mutants p-Babe-puro-HA-HIF-1α (P564A), HIF-2α (P405A; P531A) or backbone vector were treated with CCI-779 or vehicle and harvested 24 hours later. (a) Lysates were subjected to immunoblotting for HIF-1α, HIF-2α, GLUT-1, CA-IX, p-eIF4G, p-S6 and β-Actin as loading control. (b) SN12C-VHLshRNA, SN12C-VHLshRNA-HIF-1α mutant, SN12C-VHLshRNA-HIF-2α mutant cells (1×10^5) were cultured in 10% serum rich media, in the presence of vehicle, 1 or 10 nM of CCI-779 for 5 days. Cell growth was measured by cell counts (n=3). […]
For in vitro experiments, cells (5×10^4) were plated and treated with 1 and 10 nM CCI-779 (kind gift of J. Gibbons, Wyeth) or vehicle (ethanol). On day 5-post treatment, cells were trypsinized, resuspended in DMEM with 10% FBS and counted using the VI CELL counter (Beckman Coulter), according to the manufacturer's instructions. […] In vivo tumorigenicity was measured by injection of 5×10^5 SN12C-CSCG, ACHN-CSCG, SN12C-CSCG-VHLshRNAi, ACHN-CSCG-VHLshRNAi, SN12C-CSCG-VHLshRNAi-pBABE, SN12C-CSCG-VHLshRNAi-pBABE-HA-HIF-2α (P405A; P531A) cells in 100 μl of Matrigel (Collaborative Biomedical) subcutaneously into the flanks of SCID mice. […]

**Q.** Which “growth inhibitory effect of CCI-779 in cells expressing HIF mutants, in vitro” value does the source give for CO[C@H]1C[C@@H]2CC[C@@H](C)[C@@](O)(O2)C(=O)C(=O)N2CCCC[C@H]2C(=O)O[C@H]([C@H](C)C[C@@H]2CC[C@@H](OC(=O)C(C)(CO)CO)[C@H](OC)C2)CC(=O)[C@H](C)/C=C(\C)[C@@H](O)[C@@H](OC)C(=O)[C@H](C)C[C@H](C)/C=C/C=C/C=C/1C [CCI-779] here?
**A.** Its value is “completely rescued; also recorded: reversal of both the in vitro and in vivo sensitivity”.
